Reference: patent publication US11472807B2, “Purine derivatives for use as medicament and for use in treating neurodegenerative or neuro-inflammatory disorders” (COMMISSARIAT À L'ENERGIE ATOMIQUE ET AUX ENERGIES …, priority 2017, dated 2022)

Columns and labels:
IL-6 cytokine = assay: Secreted IL-6 in LPS-treated human primary glial cells (MSD ELISA); format: cell-based; conditions: LPS 6 h, then purine derivative 10 μM for 18 h
Method: For assessing the cytokine production, human primary glial cells were grown until confluent on coated collagen 12-well plates. Cells were serum-starved in glial serum-free medium for 2 h and treated with LPS for 6 h before treatment with purine derivatives (10 μM) for an additional 18 h. Supernatants were harvested and secreted IL-6 cytokine was measured by ELISA by the mean of the Meso Scale Discovery (MSD) technology. Briefly, a 96-well plate having 1 spot pre-coated with the corresponding antibody is provided by MSD Technology. Before adding the samples, a first saturation step is required. Once the plate is saturated and washed, 25 μL of sample (or calibrators) per well are loaded and incubated for 1 hour. Then the plate is washed and incubated with 25 μL of the Detection Antibody solution (MSD SULFO-TAG) for 1 hour. At the end of the incubation, the plate is washed and then a chemical solution (Read buffer 1×) is added allowing electrochemiluminescence. After a short incubation (5 min) at room temperature, the plate is read on the QUICK Plex SQ120. The instrument measures the intensity of the light electrochemiluminescence.

p-Tau (Thr212) = assay: p-Tau (Thr212)/total Tau in rat cortical neurons (western-blot); format: cell-based; conditions: purine derivative 10 μM (A100), 18 h
Method: Cells were lysed in freshly prepared lysis buffer containing in mM: Tris-HCl 50, EDTA 2, EGTA 2, NaCl 100, SDS 0.2%, Triton X-100 1%, proteases inhibitors (Roche Protease Inhibitor Cocktail #04693116001), phosphatases inhibitors (in mM: ammonium molybdate 0.1, β-glycerophosphate 20, NaF 50, Na-pyrophosphate 10, Orthovanadate 1). Protein concentration was measured by the Bradford assay and Laemmli buffer was added to each lysate. Proteins (10 μg per lane) were resolved on 12% Nu-PAGE (LifeTechonoliges #NP0342BOX) using MOPS SDS running buffer and transferred on Immobilon-FL PVDF membrane (Millipore #IPFL00010). Membranes were blocked one hour in TBS Tween20 0.1% BSA 5% at room temperature. Primary antibodies were incubated O/N at 4° C. and detected by Alexa 488 conjugated secondary antibodies (Life Techonologies #A11034 and A11029) diluted 1:1.000 in TBS Tween20 0.05% and 1% BSA. The antibodies specific for pThr212-Tau (Abcam #ab4842), pThr181-Tau (AbCam #ab75679), Tau (Millipore #MAB361), APP (Millipore #07-667) and Actin (Millipore #MAB1501) were diluted in TBS Tween20 0.05% and 1% BSA. Fluorescent signal was visualized with the VersaDoc™ Imaging System (Bio-Rad Laboratories) and quantified with Quantity One® Analysis Software. Grey levels measured for bands of interest were normalized to the corresponding actin bands.
For assessing the protein Tau's phosphorylation, the culture media of rat cortical neurons were replaced by incubation medium containing purine derivatives at 10 μM (A100) or vehicle (0.1% DMSO; Control). After 18 h incubation p-Tau (Thr212) and total Tau were quantified in the cellular extracts by western-blot.

SMILES	Anti-inflammatory Compounds (secreted IL-6) (IL-6 cytokine)	Attenuation of P-Tau/Tau ratio (p-Tau (Thr212))
CCN(Cc1ccccc1)c1nc(N[C@@H](CO)C(C)C)nc2c1ncn2C1CCCC1 [Compound 15]	+(>1 μM) (“+” means that the tested compound shows an anti-inflammatory and/or attenuation of Tau's phosphorylation property with a concentration higher than 1 μM)	+(>1 μM) (“+” means that the tested compound shows an anti-inflammatory and/or attenuation of Tau's phosphorylation property with a concentration higher than 1 μM)
CC[C@@H](CO)Nc1nc(N(C)c2ccccc2)c2ncn(C(C)C)c2n1 [Compound 26]	+(>1 μM) (“+” means that the tested compound shows an anti-inflammatory and/or attenuation of Tau's phosphorylation property with a concentration higher than 1 μM)	–
CC[C@H](CO)Nc1nc(N(C)Cc2ccccc2)c2ncn(C(C)C)c2n1 [Aftin-4]	+(>1 μM) (“+” means that the tested compound shows an anti-inflammatory and/or attenuation of Tau's phosphorylation property with a concentration higher than 1 μM)	–
CCCN(Cc1ccccc1)c1nc(N[C@H](CC)CO)nc2c1ncn2C(C)C [Compound 20]	+(>1 μM) (“+” means that the tested compound shows an anti-inflammatory and/or attenuation of Tau's phosphorylation property with a concentration higher than 1 μM)	+(>1 μM) (“+” means that the tested compound shows an anti-inflammatory and/or attenuation of Tau's phosphorylation property with a concentration higher than 1 μM)
CC[C@H](CO)Nc1nc(NCc2ccccc2)c2ncn(C(C)C)c2n1 [Roscovitine, (R)-roscovitine, reference compound]	+(>1 μM) (“+” means that the tested compound shows an anti-inflammatory and/or attenuation of Tau's phosphorylation property with a concentration higher than 1 μM)	–
CC[C@H](CO)Nc1nc(N(CC)Cc2ccccc2)c2ncn(C(C)C)c2n1 [Compound 13]	+(>1 μM) (“+” means that the tested compound shows an anti-inflammatory and/or attenuation of Tau's phosphorylation property with a concentration higher than 1 μM)	+(>1 μM) (“+” means that the tested compound shows an anti-inflammatory and/or attenuation of Tau's phosphorylation property with a concentration higher than 1 μM)
CC[C@H](CO)Nc1nc(N(C)Cc2ccccc2)c2ncn(C3CCCC3)c2n1 [Compound 14]	+(>1 μM) (“+” means that the tested compound shows an anti-inflammatory and/or attenuation of Tau's phosphorylation property with a concentration higher than 1 μM)	+(>1 μM) (“+” means that the tested compound shows an anti-inflammatory and/or attenuation of Tau's phosphorylation property with a concentration higher than 1 μM)
CCN(CC)CCNc1nc(N(CC)Cc2ccccc2)c2ncn(C3CCCC3)c2n1 [Compound 22]	+(>1 μM) (“+” means that the tested compound shows an anti-inflammatory and/or attenuation of Tau's phosphorylation property with a concentration higher than 1 μM)	+(>1 μM) (“+” means that the tested compound shows an anti-inflammatory and/or attenuation of Tau's phosphorylation property with a concentration higher than 1 μM)
CC[C@H](CO)Nc1nc(OCc2ccccc2)c2ncn(C(C)C)c2n1 [Compound 31]	+(>1 μM) (“+” means that the tested compound shows an anti-inflammatory and/or attenuation of Tau's phosphorylation property with a concentration higher than 1 μM)	+(>1 μM) (“+” means that the tested compound shows an anti-inflammatory and/or attenuation of Tau's phosphorylation property with a concentration higher than 1 μM)
